Assay results from US20250304537A1 (Repare Therapeutics Inc., priority 2022, published 2025).
Read-outs that look alike come from different tables or passages of the source.

System: PKMYT1 (CDK1 pThr14) in FUOV1 cells
Experiment: PKMYT1 cell-based activity assay, CDK1 pThr14 AlphaLISA in FUOV1 cells
Settings: 2 h, read-out: FUOV-1 CDK1 pThr14 IC50
Procedure: To determine compound IC50 (PKMYT1 cell-based activity assay, CDK1 pThr14 AlphaLISA), FUOV1 cells were plated into a 96-well TC-treated culture plate at 50000 cells/well in a final volume of 100 μL of media. The plates were then allowed to equilibrate in a biological safety cabinet for 30 minutes before being placed in a humidified incubator at 37 C and 5% CO2 overnight. The next day, 2 μL of PKMYT1 inhibitors or DMSO were diluted in 400 μL of warmed culture media in a 96-well block using a Biomek FX liquid handler. Compounds were mixed in media and then 25 μL was dispensed into each well of the 96-well cell plate. Plates were centrifuged at 300 g for 10 seconds and then placed in the incubator for 2 hours. After the 2-hour incubation with compound, media was removed via aspiration using a multichannel pipette. 30 μL of 1× AlphaLISA lysis buffer (Perkin Elmer) supplemented with protease and phosphatase inhibitors as well as 1 mM PMSF, was added to each well. Plates were rotated at 500 g for 20 minutes to facilitate lysis. Plates were then sealed with aluminum foil and frozen at −80° C. for at least 1 hour. Lysates were thawed at 37° C. for 10 minutes, then 10 μL of each lysate was transferred in duplicate to a white 384-well assay plate. Antibody mixture was prepared in 1× AlphaLISA assay buffer (Perkin Elmer) containing antibodies (5 nM final concentration for rabbit pThr14-CDK1 from Abcam #ab58509 and mouse total CDK1 from ThermoFisher Scientific #33-1800). 5 μL of antibody mixture was added to each well of the assay plate. The assay plate was sealed and stored at 4° C. overnight. The next day, AlphaLISA bead mixture (Perkin Elmer) was prepared in 1× AlphaLISA assay buffer. Anti-rabbit IgG Acceptor (Perkin Elmer #AL104C) and anti-mouse IgG Donor beads (Perkin Elmer #AS104D) were prepared to a concentration of 80 μg/ml in assay buffer. 5 μL of bead mixture was added to each well of the assay plate (20 μg/ml final concentration for each bead). The plate was protected from light and incubated for 2 hours at room temperature. After a 2-hour incubation with beads, the plate was read using the Perkin Elmer EnVision Multimode plate reader with excitation at 680 nm and emission at 615 nm.

IC50 (2 h compound incubation) | IC50 (2 hours with compound) | Compound | further results
 | 0.034 µM | COc1ccc(F)c(Nc2nc(F)ccc2-c2nc(C(N)=O)c(N)c(-c3c(C)ccc4[nH]ncc34)n2)n1 [Compound 922] | 
 | 0.223 µM | [2H]C([2H])([2H])c1ccc2[nH]ncc2c1-c1nc(-c2cccnc2NC23CC(C(=O)OC)(C2)C3)nc(C(N)=O)c1N [Compound 961, methyl 3-((3-(5-amino-4-carbamoyl-6-(5-(methyl-d3)-1H-indazol-4-yl)pyrimidin-2-yl)pyridin-2-yl)amino)bicyclo[1.1.1]pentane-1-carboxylate] | 
 | 0.16 µM | [2H]C([2H])([2H])c1ccc2[nH]ncc2c1-c1nc(-c2cccnc2NC23CC(C#N)(C2)C3)nc(C(N)=O)c1N [Compound 957, 5-amino-2-[2-[(3-cyano-1-bicyclo[1.1.1]pentanyl)amino]-3-pyridyl]-6-[5-(trideuteriomethyl)-1H-indazol-4-yl]pyrimidine-4-carboxamide] | 
 | 0.022 µM | Cc1ccc(Cl)nc1Nc1nc(F)ccc1-c1nc(C(N)=O)c(N)c(-c2c(C)ccc3[nH]ncc23)n1 [Compound 943] | 
 | > 10 µM | COc1c(C(N)=O)nc(-c2cccnc2Nc2nc(F)ccc2F)nc1-c1c(C)ccc2[nH]ncc12 [Compound 963, 2-(2-((3,6-difluoropyridin-2-yl)amino)pyridin-3-yl)-5-methoxy-6-(5-methyl-1H-indazol-4-yl)pyrimidine-4-carboxamide] | 
 | 0.232 µM | Cc1ccc2[nH]ncc2c1-c1nc(-c2ccc(F)cc2N[C@H]2C[C@@H](O)C2)nc(C(N)=O)c1N [Compound 860] | 
 | 0.214 µM | Cc1cc(F)c2[nH]ncc2c1-c1nc(-c2ccc(C(F)F)nc2Nc2ncccn2)nc(C(N)=O)c1N [Compound 907] | 
 | 0.014 µM | [2H]C([2H])([2H])c1ccc2[nH]ncc2c1-c1nc(-c2ccc(F)nc2Nc2nc(C)ncc2F)nc(C(N)=O)c1N [Compound 972] | 

Continued, compound first:

Compound | IC50 (2 h compound incubation) | IC50 (2 hours with compound) | further results
Cc1ccc2[nH]ncc2c1-c1nc(-c2cccnc2Nc2ncccc2C(F)F)nc(C(N)=O)c1N [Compound 720] | 0.007 µM |  | 
Cc1ccc2[nH]ncc2c1-c1nc(-c2cccnc2Nc2cccc(F)n2)nc(C(N)=O)c1N [Compound 659] | 0.185 µM |  | 
Cc1ccc2[nH]ncc2c1-c1nc(-c2cccnc2Nc2cncnc2C)nc(C(N)=O)c1N [Compound 717] | 0.216 µM |  | 
COC(COc1nccc(-c2cc(-c3c(C)ccc4[nH]ncc34)c(N)c(C(N)=O)n2)n1)c1ccccc1 (stereo not drawn) [Compound 238] |  |  | IC50 (2 h incubation): 0.092 µM
Cc1ccc2[nH]ncc2c1-c1nc(-c2cccnc2Nc2nc(C(F)F)ccc2F)nc(C(N)=O)c1N [Compound 842] |  | 0.003 µM | 
Cc1cccnc1Nc1cc(F)ccc1-c1nc(C(N)=O)c(N)c(-c2c(C)ccc3[nH]ncc23)n1 [Compound 671] | 0.164 µM |  | 
Cc1ccc2[nH]ncc2c1-c1nc(-c2cccnc2N[C@@H]2CCOC[C@H]2F)nc(C(N)=O)c1N [Compound 647] | 0.028 µM |  | 
Cc1ccc2[nH]ncc2c1-c1nc(-c2cccnc2N[C@H]2CCCOC2)nc(C(N)=O)c1N [Compound 546] | 0.012 µM |  | 
CO[C@H]1C[C@@H](Nc2ncccc2-c2nc(C(N)=O)c(N)c(-c3c(C)ccc4[nH]ncc34)n2)C1 [Compound 548] | 0.227 µM |  | 
Cc1ccc2[nH]ncc2c1-c1nc(-c2cc(F)cnc2N[C@@H]2COC[C@@H]2O)nc(C(N)=O)c1N [Compound 814] |  | 0.071 µM | 
Cc1ccc2[nH]ncc2c1-c1nc(-c2cc(F)c(F)cc2NCC2(C)COC2)nc(C(N)=O)c1N [Compound 503] | 0.023 µM |  | 
Cc1c(F)cc2[nH]ncc2c1-c1nc(-c2ccc(F)nc2Nc2nc(C(F)F)ccc2F)nc(C(N)=O)c1N [Compound 858] |  | 0.007 µM | 
Cc1ccc2[nH]ncc2c1-c1nc(-c2cc(F)cnc2N[C@H]2CCOC2)nc(C(N)=O)c1N [Compound 711] | 0.014 µM |  | 
Cc1cc(Nc2cc(F)ccc2-c2nc(C(N)=O)c(N)c(-c3c(C)ccc4[nH]ncc34)n2)cc(C#N)n1 [Compound 586] | 0.075 µM |  | 
Cc1ccc2[nH]ncc2c1-c1nc(-c2cc(F)c(F)cc2NC2CCCC2(C)C)nc(C(N)=O)c1N (stereo not drawn) [Compound 488] | 0.861 µM |  | 
Cc1ccc(-c2nc(C(N)=O)c(N)c(-c3c(C)ccc4[nH]ncc34)n2)c(Nc2cncc(Cl)n2)n1 [Compound 725] | 0.474 µM |  | 
